Values quoted from earlier work, collected in US20120302639A1, “OMEGA 3 FORMULATIONS FOR TREATMENT OF RISK FACTORS FOR CARDIOVASCULAR DISEASE AND PROTECTION AGAINST SUDDEN DEATH” (PIVOTAL THERAPEUTICS INC., priority 2011, published 2012).

Settings: ALOGPS, as reported by Tetko et al. 2005

| theoretical Log P | SMILES |
| --- | --- |
| 6.53 | CC/C=C\C/C=C\C/C=C\C/C=C\C/C=C\CCCC(=O)O [EPA, Eicosapentaenoic acid] |
| 6.83 | CC/C=C\C/C=C\C/C=C\C/C=C\C/C=C\C/C=C\CCC(=O)O [DHA, Docosahexaenoic acid] |
